What was measured:
splenic T cells = assay: In vitro hypoxia/reoxygenation of CD3/CD28 stimulated splenic T cells; type: cell-based, mouse
Procedure: In vitro studies were performed to evaluate the effect of glutamine blockade on activated T cells under hypoxia followed by reoxygenation. Splenic T cells (CD45^+, TCR αβ^+) were isolated and cultured using media containing 0.25 μM, 0.5 μM, or 1 μM of JHU083 or vehicle. After 24 h from the culture under CD3/CD28 stimulation, cells were exposed to hypoxia for 24 h followed by reoxygenation.
Kidney T cells were isolated using FACS. Briefly, single-cell suspension of KMNCs was preincubated with anti-CD16/CD32 Fc block (S17011E, BioLegend) stained in Cell Staining Buffer (BioLegend) with fluorochrome-labeled antibodies: APC-Cy7 anti-CD45 (30-F11) and BV421 anti-TCRβ ([…]) from BioLegend. Live Dead Aqua (Thermo Fisher Scientific) was stained for viability assay. […] TCRβ^+ cells were sorted with FACSAria II Cell Sorter (BD Bioscience). Splenic T cells were isolated from single cells suspension of spleens using a T Cell Isolation Kit II (Miltenyi Biotec, North Rhine-Westphalia, Germany) according to the manufacturer's guideline.
48-well flat-bottom plates were coated with 5-μg/mL anti-CD3 in PBS and incubated at 4° C. overnight. […]

[1] = mouse, in vivo, ip, 1.83 mg/kg
Procedure: Glutamine antagonist, JHU083 was synthesized as previously described, Rais et al., 2016, and dissolved in 50 mM […] 4-(2-hydroxyethyl)-1-piperazineethanesulfonic acid (HEPES) buffered 0.9% saline. Aliquot stocks were stored at −80° C. and thawed right before injection. Before the IRI surgery or cisplatin injection, mice were administered 1.83 mg/kg JHU083 (equivalent to 1 mg/kg DON) or vehicle (50 mM HEPES buffered 0.9% saline) every other day via intraperitoneal injection. Following 4 consecutive dosages, mice underwent IRI surgery or cisplatin injection. The last additional dose was given at 24 h after IRI or cisplatin injection. This dosage regimen was chosen based on efficiency and toxicity data from a previous study. Hollinger et al., 2020.

CCOC(=O)[C@H](CCC(=O)C=[N+]=[N-])NC(=O)[C@@H](N)CC(C)C [JHU083]
expression of activation and proliferation markers (CD44, CD69, CD25, Ki67) (splenic T cells; 0.25 μM, 0.5 μM, or 1 μM JHU083, 24 h hypoxia followed by reoxygenation, dose-dependent, vs vehicle): reduced expression of activation and proliferation markers | metabolic profiles of treated T cells (splenic T cells; CD3/CD28 stimulation, hypoxia/reoxygenation, FIG. 18B): exhibited unstimulated T cell phenotypes | body weight [1]: no significant differences between groups

— US20240408114A1, “METHODS FOR PREVENTING AND TREATING ACUTE KIDNEY INJURY” (The Johns Hopkins University, priority 2021, published 2024)
